Data on 101 molecules can be found in ChEMBL document CHEMBL3507680, “University of Dundee, Gates Library screen for HepG2 cell viability”.

The series is described as follows: Human HepG2 cell viability assay in 384 well format. The class given is toxicity, cell-based. The note with it: HepG2 cells, read-out: Inhibition. Set-up: dose 125 nL, time 70.5 hour; cytotoxicity at 70.5 h: concentration not given beside the values.
With `CN(Cc1ccco1)C(=O)c1cccc(N2CCCC2=O)c1`, the cytotoxicity at 70.5 h is -8.03%.

Regarding `CC(Cn1ccnc1)NC(=O)NCCc1ccc(Cl)s1` (stereo unspecified), the cytotoxicity at 70.5 h was -4.32%.

With `Cn1cc(C2CCCN2C(=O)COCCc2ccccc2)cn1` (stereo unspecified), the cytotoxicity at 70.5 h is -8.67%.

On to `CCc1nc2n(n1)CC(NCC(=O)Nc1cc(C)nn1C)CC2` (stereo unspecified), for which the cytotoxicity at 70.5 h was -6.14%.

Take `CC(C)c1noc(CCCC(=O)N2CCN(Cc3ccccn3)CC2)n1`: the cytotoxicity at 70.5 h is -11.6%.

Take `CC(C)c1noc(CCCC(=O)N2CCN(Cc3ccsc3)CC2)n1`: the cytotoxicity at 70.5 h is -6.21%.

In the case of `Cc1nc(CCNC(=O)NC(C)Cn2cccn2)cs1` (stereo unspecified), the cytotoxicity at 70.5 h was -12.8%.

Take `Cn1cc(NS(=O)(=O)c2ccc(C(F)(F)F)cc2)ccc1=O`: the cytotoxicity at 70.5 h is -9.18%.

As for `CCCc1ccc(S(=O)(=O)Nc2ccc(=O)n(C)c2)cc1`, the cytotoxicity at 70.5 h was determined as 22.8%.

In the case of `Cn1ncc2c(=O)[nH]c(CN3CCCC3c3cccc(F)c3)nc21` (stereo unspecified), the cytotoxicity at 70.5 h was -7.63%.

With `Cn1ncc2c(=O)[nH]c(CN3CCc4sccc4C3)nc21`, the cytotoxicity at 70.5 h was found to be 13.1%.

For `CCc1nc(CN2CCN(C(=O)C3(C#N)CCCC3)CC2)cs1`, the cytotoxicity at 70.5 h is -2.5%.

`CCn1cnnc1C1CCN(C(=O)c2cnc(C)s2)CC1`: the cytotoxicity at 70.5 h is -12.3%.

For the molecule `Cn1cc(C2CCCN2C(=O)CCCOc2ccc(F)cc2)cn1` (stereo unspecified), the cytotoxicity at 70.5 h was 15.6%.

As to `Cn1cc(C2CCCN2C(=O)COCCOc2ccccc2)cn1` (stereo unspecified), the cytotoxicity at 70.5 h was -4.67%.

Regarding `CN(C)c1cc2c(nn1)CCN(C(=O)C1Cc3ccccc3O1)C2` (stereo unspecified), the cytotoxicity at 70.5 h was determined as 8.33%.

For `COc1ncccc1CNC(=O)N(Cc1ccc(F)cc1F)C1CC1`, the cytotoxicity at 70.5 h was -12.4%.

Consider `CCc1ccc(C(=O)N2CCC(c3nncn3CC)CC2)s1`, for which the cytotoxicity at 70.5 h is -7.92%.

Consider `Cn1cnnc1C1CCN(C(=O)c2cc3c(s2)CCCC3)CC1`, for which the cytotoxicity at 70.5 h was determined as 14.6%.

Turning to `CN(Cc1nccn1C)C1CCCN(Cc2noc(C3CC3)n2)C1` (stereo unspecified), the cytotoxicity at 70.5 h was determined as 15.8%.

For `CCc1cnc(CN(C)C2CCN(CC(=O)Nc3cc(C)on3)C2)o1` (stereo unspecified), the cytotoxicity at 70.5 h was 11.1%.

On to `CCC(O)CN1CCN(C(=O)c2ccc3c(c2)COC3)CC1` (stereo unspecified), for which the cytotoxicity at 70.5 h turned out to be 14.3%.

Regarding `OC(COCc1ccccc1)CN1CCC(c2ccn[nH]2)CC1` (stereo unspecified), the cytotoxicity at 70.5 h was 19.6%.

Consider `CN(CC(=O)N1CCCCC1Cn1cccn1)C1CC1` (stereo unspecified), for which the cytotoxicity at 70.5 h was found to be 4.49%.

`Cn1ccnc1CN1CCN(Cc2noc(C3CC3)n2)CC1`: the cytotoxicity at 70.5 h is -12.6%.

In the case of `CC(C(=O)NCCOc1ccc(F)cc1)n1cncn1` (stereo unspecified), the cytotoxicity at 70.5 h was -14.7%.

Regarding `O=C(NCc1ccccn1)C1=NN(c2ccccc2)C(=O)CN1`, the cytotoxicity at 70.5 h was -16.4%.

In the case of `CCCc1noc(CCC(=O)N2CCCC2c2ccc(OC)cc2)n1` (stereo unspecified), the cytotoxicity at 70.5 h is -16.8%.

Regarding `OC(COc1ccc(F)cc1)CN1CCC(c2ccn[nH]2)CC1` (stereo unspecified), the cytotoxicity at 70.5 h was -9.19%.

On to `Cc1nc(-c2ccco2)ccc1C(=O)N1CCn2c(C)nnc2C1`, for which the cytotoxicity at 70.5 h was -17.1%.

On to `CCN1CCN(C2CCN(CC(=O)NCC(F)(F)F)CC2)C1=O`, for which the cytotoxicity at 70.5 h was -6.43%.

With `Cc1cnn(CCNCC(O)COc2c(Cl)cccc2Cl)c1` (stereo unspecified), the cytotoxicity at 70.5 h is -4.22%.

On to `Cc1noc(C)c1C(=O)N1CCCC1c1c(C)nn(C)c1C` (stereo unspecified), for which the cytotoxicity at 70.5 h was -8.88%.

With `Cc1nn(C)c(Cl)c1C1CCCN1Cc1cccc(C(N)=O)c1` (stereo unspecified), the cytotoxicity at 70.5 h is -10.9%.

With `c1coc(-c2noc(CN3CCCCC3Cn3cncn3)n2)c1` (stereo unspecified), the cytotoxicity at 70.5 h stood at 5.99%.

Take `CCn1ncc2c1CCCC2NCc1cc(OC)cc(OC)c1` (stereo unspecified): the cytotoxicity at 70.5 h was -9.39%.

As to `CCc1noc(CN2CCN(C(=O)N(CC)CC)CC2)n1`, the cytotoxicity at 70.5 h is -10%.

As for `Cc1cccc(OCC(O)CN2CCC(c3ccn[nH]3)CC2)c1` (stereo unspecified), the cytotoxicity at 70.5 h is -0.803%.

With `CCCc1noc(CCCC(=O)N2CCCC2c2cnn(C)c2)n1` (stereo unspecified), the cytotoxicity at 70.5 h was -8.23%.

For `O=C(c1ccc2c(c1)COC2)N1CCN(CCO)CC1`, the cytotoxicity at 70.5 h is -3.79%.

With `CCn1ncc2c1CCCC2NCc1ccc(OC)c(F)c1` (stereo unspecified), the cytotoxicity at 70.5 h is -9.63%.

Turning to `COCCNC(=O)CN1CCC(N2CCN(C)C2=O)CC1`, the cytotoxicity at 70.5 h was -13.2%.

In the case of `OC(COCc1ccccc1Cl)CN1CCC(c2ccn[nH]2)CC1` (stereo unspecified), the cytotoxicity at 70.5 h is 1.38%.

Take `CN(C)CC1CN(Cc2ccc(-n3cccn3)cc2)CCO1` (stereo unspecified): the cytotoxicity at 70.5 h is 0.969%.

Turning to `O=C(CN1CCCC1Cn1cccn1)NCCC1=CCCCC1` (stereo unspecified), the cytotoxicity at 70.5 h is -9.89%.

With `CCc1ccsc1C(=O)N1CCCN(Cc2cnn(CC)c2)CC1`, the cytotoxicity at 70.5 h amounted to 7.56%.

Consider `CNC(=O)CCS(=O)(=O)Cc1cc(Cl)c2c(c1)OCCO2`, for which the cytotoxicity at 70.5 h was -3.97%.

Consider `CC(=O)c1ccc(S(=O)(=O)NCc2cccnc2N(C)C)cc1`, for which the cytotoxicity at 70.5 h is -3.14%.

With `CCc1ncncc1C(=O)N1CCN(Cc2c(C)noc2C)CC1`, the cytotoxicity at 70.5 h was -11.6%.

For the molecule `CCN1CCN(C(=O)CCc2c(C)noc2Cl)CC1`, the cytotoxicity at 70.5 h is -13.8%.

Consider `Cc1nnc2n1CCN(C(=O)c1cc(C)n(-c3ccccn3)c1C)C2`, for which the cytotoxicity at 70.5 h is -14%.

For `Cc1cccc(-n2c(C)cc(C(=O)N3CCn4c(C)nnc4C3)c2C)c1`, the cytotoxicity at 70.5 h is -1.57%.

Take `Cc1noc(Cl)c1CCC(=O)N1CCC(CC(N)=O)CC1`: the cytotoxicity at 70.5 h was -4.77%.

Regarding `CCc1c(C(=O)N2CCN(CC(N)=O)CC2)cnn1C(C)(C)C`, the cytotoxicity at 70.5 h is -2.02%.

For the molecule `Cn1cnc2c1CCN(Cc1nc(COc3ccc(F)cc3)no1)C2`, the cytotoxicity at 70.5 h was 10.6%.

Consider `Cc1nc(C)n(CC2CCCN2CC(=O)Nc2cc(C(C)C)no2)n1` (stereo unspecified), for which the cytotoxicity at 70.5 h was -13.1%.

`Cc1nc2n(n1)CC(NCc1cc(Cl)c3c(c1)OCCCO3)CC2` (stereo unspecified): the cytotoxicity at 70.5 h was -6.52%.

Regarding `CN(Cc1ccco1)C(=O)[C@H]1CSCN1C(=O)OC(C)(C)C`, the cytotoxicity at 70.5 h is -1.49%.

Regarding `Cc1nn(C)c(C)c1C1CCCN1C(=O)CCc1cscn1` (stereo unspecified), the cytotoxicity at 70.5 h was -6.08%.

`COc1cc(CNC2CCc3nc(C(C)C)nn3C2)cc2c1OCO2` (stereo unspecified): the cytotoxicity at 70.5 h is -13.1%.

On to `CSCC(=O)N1CCCC(n2ccnc2C(C)C)C1` (stereo unspecified), for which the cytotoxicity at 70.5 h is -7.04%.

Regarding `CC(C)c1nccn1C1CCCN(C(=O)c2cnn(C)c2C2CC2)C1` (stereo unspecified), the cytotoxicity at 70.5 h is 5.54%.

Consider `CN(CCCOc1ccccc1)C(=O)CN1CCc2cncnc2C1`, for which the cytotoxicity at 70.5 h was determined as 8.28%.

As for `O=C(CN1CCc2cncnc2C1)NCCOc1ccccc1`, the cytotoxicity at 70.5 h is -5.53%.

As for `O=C(CC1CCCO1)NCc1ccccc1Cn1cncn1` (stereo unspecified), the cytotoxicity at 70.5 h was -3.75%.

In the case of `CCN(CC)c1ccc(C(=O)N(C)Cc2c(C)noc2C)cn1`, the cytotoxicity at 70.5 h is -3.66%.

Regarding `N#Cc1ccc(CN2CCC(c3ccnn3CCO)CC2)cc1`, the cytotoxicity at 70.5 h was -2.2%.

For the molecule `Cc1noc(C)c1CNC(=O)c1ccc(NC2CC2)nc1`, the cytotoxicity at 70.5 h was determined as 5.69%.

For `CCc1nc(C(=O)N2CCCC2)nn1-c1ccccc1Cl`, the cytotoxicity at 70.5 h turned out to be 10.2%.

With `Cc1nccc(-c2cccc(NCC(=O)N3CCCCCCC3)c2)n1`, the cytotoxicity at 70.5 h came to 17.3%.

As for `Cc1cc(C)n(CC2CN(CCOc3cccc(C#N)c3)CCO2)n1` (stereo unspecified), the cytotoxicity at 70.5 h worked out at 0.061%.

For `Cc1cc(C)c(CNC(=O)NCC(O)c2cccc(F)c2)c(=O)[nH]1` (stereo unspecified), the cytotoxicity at 70.5 h was -3.53%.

In the case of `CCc1ncc(CN(C)C(=O)Nc2cccnc2N2CCCC2)s1`, the cytotoxicity at 70.5 h came to 0.712%.

Consider `CC(C)c1nccn1C1CCCN(C(=O)c2cnc[nH]2)C1` (stereo unspecified), for which the cytotoxicity at 70.5 h was determined as 3.72%.

Take `O=C1COc2ccc(C(=O)NS(=O)(=O)c3ccc(F)cc3F)cc2N1`: the cytotoxicity at 70.5 h was -0.102%.

Turning to `CC(C)c1n[nH]c(C2CN(C(=O)c3cccc4cn[nH]c34)CCO2)n1` (stereo unspecified), the cytotoxicity at 70.5 h was 3.42%.

Regarding `CC(C)c1n[nH]c(C2CN(C(=O)c3csnn3)CCO2)n1` (stereo unspecified), the cytotoxicity at 70.5 h is -3.07%.

Turning to `CC(OCC1CC1)C(=O)N1CCCN(c2ncccc2C#N)CC1` (stereo unspecified), the cytotoxicity at 70.5 h was determined as 15.5%.

Take `COc1ccc(-c2noc(CNC(C)Cn3cccn3)n2)c(OC)c1` (stereo unspecified): the cytotoxicity at 70.5 h came out at 22.3%.

Turning to `Cn1ccnc1CN1CCCN(C(=O)c2ccc3c(c2)COC3)CC1`, the cytotoxicity at 70.5 h came out at 5.68%.

Take `O=C(NCCC1=CCCCC1)NCc1nnc2n1CCC2`: the cytotoxicity at 70.5 h was -10.8%.

`O=C(NCc1cc[nH]n1)N1CCN(c2ccccc2Cl)CC1`: the cytotoxicity at 70.5 h came to 6.1%.

Take `O=C(NCCN1CCCCC1)c1scnc1Cl`: the cytotoxicity at 70.5 h is -8.74%.

For `CN(CCc1ccc(F)cc1)Cc1nc2c(cnn2C)c(=O)[nH]1`, the cytotoxicity at 70.5 h amounted to 11.7%.

`CC(C(=O)N1CCCN(c2ncccc2C#N)CC1)n1cccn1` (stereo unspecified): the cytotoxicity at 70.5 h is -9.79%.

`CN(CC(=O)N1CCCC1c1cnn(C)c1)c1ccc(Cl)cn1` (stereo unspecified): the cytotoxicity at 70.5 h was found to be 3.73%.

Take `O=C(NCc1ccc(-c2ccn[nH]2)cc1)N1CCC(N2CCCC2)C1` (stereo unspecified): the cytotoxicity at 70.5 h is -5.88%.

Consider `Cc1nnc(CN2CCN(CCOc3ccccc3C#N)CC2)n1C`, for which the cytotoxicity at 70.5 h is 7.15%.

On to `CCc1ncc2c(n1)CN(Cc1nc(-c3ccsc3)oc1C)CC2`, for which the cytotoxicity at 70.5 h worked out at 1.83%.

In the case of `O=C(CCOc1ccccc1)N1CCC(Nc2cccnn2)CC1`, the cytotoxicity at 70.5 h is 1.59%.

With `O=C(c1ccsc1)N1CCCC(c2cc(C(F)(F)F)[nH]n2)C1` (stereo unspecified), the cytotoxicity at 70.5 h turned out to be 11.1%.

`O=C(c1ccc(Cl)o1)N1CCCC(c2cc(C(F)(F)F)[nH]n2)C1` (stereo unspecified): the cytotoxicity at 70.5 h was -3.16%.

With `O=C(c1ccc[nH]1)N1CCCC(c2cc(C(F)(F)F)[nH]n2)C1` (stereo unspecified), the cytotoxicity at 70.5 h is -0.878%.

On to `CC(C)(C)c1ncc(C(=O)NCCS(N)(=O)=O)s1`, for which the cytotoxicity at 70.5 h is -1.37%.

On to `CSc1nccn1-c1cccc(C(=O)NCC2CC2)c1`, for which the cytotoxicity at 70.5 h is 0.766%.

In the case of `O=C(NCc1cc[nH]n1)N1CCCCC(N2CCCC2)C1` (stereo unspecified), the cytotoxicity at 70.5 h is -0.0102%.

Regarding `COc1cc(C)ccc1OCCC(=O)N1CCCC1Cn1cccn1` (stereo unspecified), the cytotoxicity at 70.5 h was -3.24%.

For the molecule `Cn1ccnc1CN1CCCN(C(=O)c2ccc(Cl)o2)CC1`, the cytotoxicity at 70.5 h was -8.18%.

Regarding `Cc1cc(NC(=O)CN2CCc3cnc(C)nc3C2)on1`, the cytotoxicity at 70.5 h was 35.8%.

In the case of `O=C(NCCN1CCCc2ccccc21)c1scnc1Cl`, the cytotoxicity at 70.5 h is 10.6%.

Take `CC(C)c1nn(C)c(N(C)C)c1CNCc1cccc(CN(C)C)c1`: the cytotoxicity at 70.5 h came out at 0.875%.
